One may read the half-life as the time in which the quantity being followed falls by half. What is called bioavailability is the share of a dose that reaches the circulation, judged against a reference dose that is usually intravenous. Low readings indicate poor availability, high ones good availability.

The values that follow come from ChEMBL document CHEMBL2439970 (Bioorg Med Chem Lett, 2013).

Type in all cases: ADME, organism-based
One data set relates to Rattus norvegicus. In words: Dose normalized AUC in Sprague-Dawley rat 2 mg/kg, po. More on the design: dose 2 mg/kg, route oral. The settings on record: in vivo.
Data set [1] in a line: Half life in Sprague-Dawley rat at 1 mg/kg, iv and 2 mg/kg, po. The settings on record: in vivo.
Data set [2] can be described thus: Oral bioavailability in Sprague-Dawley rat 2 mg/kg. Particulars: in vivo.
The nature of data set [3]: Volume of distribution at steady state in Sprague-Dawley rat at 1 mg/kg, iv and 2 mg/kg, po. Particulars: in vivo, read-out: Vdss.
Data set [4] is described as follows: Clearance in Sprague-Dawley rat at 1 mg/kg, iv and 2 mg/kg, po. Particulars: in vivo.

With `O=C1OCCc2cc(CCN3CCN(C(=O)Cc4ccc(-n5cnnn5)cc4)CC3)ccc21`, in the data set with Rattus norvegicus, the AUC/dose is 0.48 µM·kg·h/mg. In data set [1], this compound gave a half-life of 30 min. The bioavailability in data set [2] is 52%. Also, the Vd in data set [3] turned out to be 1.3 L/kg. Further, the clearance in data set [4] was 2.58 L/h/kg.

As to `O=C1OCc2cc(CCN3CCN(C(=O)Cc4ccc(-n5cnnn5)cc4)CC3)ccc21`, the AUC/dose in the data set on Rattus norvegicus was found to be 0.34 µM·kg·h/mg. This compound had a half-life in data set [1] of 37.2 min. This compound returned a bioavailability in data set [2] of 33%. For the same compound, in data set [3], the Vd came to 0.66 L/kg. Moreover, the clearance in data set [4] is 2.4 L/h/kg.
